Test results: ChEMBL document CHEMBL1201862, “PubChem BioAssay data set” (2004)
Calls of active or inactive are those of the source.

Legend:
[1] = molecular target: Mucolipin-3 (Homo sapiens, UniProt Q8TDD5); assay: Dose response cell-based high-throughput screening assay for agonists of the transient receptor potential channel ML3 (TRPML3). [Related pubchem assays: 1526, 1424, 1448 ]; assay type: functional
[2] = molecular target: Ion channel NompC (Danio rerio, UniProt Q7T1G6); assay: Fluorescence counterscreen assay for TRPML3 agonists: dose response cell-based high-throughput screening assay to identify agonists of the transient receptor potential channel N1 (TRPN1). [Related pubchem assays: 1526, 1424, 1448 ]; assay type: functional
Sequence of Ion channel NompC (Q7T1G6 whole entry): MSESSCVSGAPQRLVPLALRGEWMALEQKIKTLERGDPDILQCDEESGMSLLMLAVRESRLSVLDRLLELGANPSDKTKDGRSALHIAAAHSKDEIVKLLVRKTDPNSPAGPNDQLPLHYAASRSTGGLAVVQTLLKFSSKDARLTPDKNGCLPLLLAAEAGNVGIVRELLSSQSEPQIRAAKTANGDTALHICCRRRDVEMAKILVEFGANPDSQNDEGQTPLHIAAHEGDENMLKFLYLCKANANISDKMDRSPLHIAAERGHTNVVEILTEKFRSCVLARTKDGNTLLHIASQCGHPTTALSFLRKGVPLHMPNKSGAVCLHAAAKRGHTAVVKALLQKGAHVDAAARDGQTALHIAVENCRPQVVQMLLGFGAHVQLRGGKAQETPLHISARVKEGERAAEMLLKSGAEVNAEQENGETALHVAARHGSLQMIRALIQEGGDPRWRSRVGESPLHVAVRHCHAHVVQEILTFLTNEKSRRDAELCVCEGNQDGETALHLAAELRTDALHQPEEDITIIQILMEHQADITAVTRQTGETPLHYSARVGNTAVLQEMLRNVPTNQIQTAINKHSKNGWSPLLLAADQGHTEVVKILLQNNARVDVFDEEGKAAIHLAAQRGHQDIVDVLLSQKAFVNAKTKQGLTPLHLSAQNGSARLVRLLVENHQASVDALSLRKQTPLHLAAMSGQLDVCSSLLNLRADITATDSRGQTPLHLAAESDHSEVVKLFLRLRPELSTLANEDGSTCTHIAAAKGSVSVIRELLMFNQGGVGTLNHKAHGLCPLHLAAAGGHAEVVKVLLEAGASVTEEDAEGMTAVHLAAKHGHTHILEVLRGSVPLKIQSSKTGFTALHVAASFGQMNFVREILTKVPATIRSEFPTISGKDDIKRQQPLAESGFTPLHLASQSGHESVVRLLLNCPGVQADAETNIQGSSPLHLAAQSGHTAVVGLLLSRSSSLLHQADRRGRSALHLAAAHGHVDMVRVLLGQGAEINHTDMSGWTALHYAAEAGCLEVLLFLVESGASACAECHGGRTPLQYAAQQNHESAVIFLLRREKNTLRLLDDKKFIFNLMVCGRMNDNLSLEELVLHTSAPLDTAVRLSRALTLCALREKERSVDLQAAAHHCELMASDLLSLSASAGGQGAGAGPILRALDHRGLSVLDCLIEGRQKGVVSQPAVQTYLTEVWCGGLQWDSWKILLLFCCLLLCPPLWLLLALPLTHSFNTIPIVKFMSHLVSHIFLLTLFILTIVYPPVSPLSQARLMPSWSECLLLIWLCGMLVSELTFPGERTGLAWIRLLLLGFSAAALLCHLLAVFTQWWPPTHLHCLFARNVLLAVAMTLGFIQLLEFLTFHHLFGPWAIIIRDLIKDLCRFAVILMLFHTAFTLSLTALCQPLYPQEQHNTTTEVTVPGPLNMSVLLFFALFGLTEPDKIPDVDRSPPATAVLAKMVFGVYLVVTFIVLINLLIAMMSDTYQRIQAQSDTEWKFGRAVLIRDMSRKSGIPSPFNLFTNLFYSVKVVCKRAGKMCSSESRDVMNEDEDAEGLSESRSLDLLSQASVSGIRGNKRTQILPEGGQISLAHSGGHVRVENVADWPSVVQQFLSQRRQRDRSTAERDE

[3] = antiviral protection against BTV-induced cell death – arbovirus, BSR cells, confirmation (AID 1250); assay type: functional;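 note: protection from viral cytopathic effect measured as cell viability by ATP luminescence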
[4] = molecular target: T1, Hepatocyte nuclear factor 4-alpha (Homo sapiens, UniProt P41235); assay type: functional, cell-based;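 note: biochemical luminescence-based dose-response counterscreen measuring inhibition of HNF4 dimerization, run alongside a screen for blockers of ABHD5–perilipin-5 interaction; split luciferase complementation of HNF4 fusion proteins in cell lysate measuring dimerization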
T1 sequence (P41235 whole entry): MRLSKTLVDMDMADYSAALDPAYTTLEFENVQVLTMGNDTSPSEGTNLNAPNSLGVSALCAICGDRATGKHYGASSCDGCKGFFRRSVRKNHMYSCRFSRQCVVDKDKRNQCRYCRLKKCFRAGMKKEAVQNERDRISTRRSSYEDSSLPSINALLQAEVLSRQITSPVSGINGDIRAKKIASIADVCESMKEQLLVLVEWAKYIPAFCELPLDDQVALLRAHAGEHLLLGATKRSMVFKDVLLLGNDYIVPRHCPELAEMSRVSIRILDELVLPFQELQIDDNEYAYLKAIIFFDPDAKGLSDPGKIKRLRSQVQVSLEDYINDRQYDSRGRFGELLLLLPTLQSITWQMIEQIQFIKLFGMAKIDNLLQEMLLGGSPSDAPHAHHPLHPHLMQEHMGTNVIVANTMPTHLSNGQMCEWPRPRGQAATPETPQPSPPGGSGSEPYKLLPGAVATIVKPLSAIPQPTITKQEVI

[5] = molecular target: Glucose-6-phosphate 1-dehydrogenase (Homo sapiens, UniProt P11413); assay: inhibition of Homo sapiens G6PD, dose series – biochemical, fluorescence, selectivity assay for P. falciparum G6PD inhibitor project, dose response (AID 504792); assay type: functional
Sequence of Glucose-6-phosphate 1-dehydrogenase (P11413 whole entry): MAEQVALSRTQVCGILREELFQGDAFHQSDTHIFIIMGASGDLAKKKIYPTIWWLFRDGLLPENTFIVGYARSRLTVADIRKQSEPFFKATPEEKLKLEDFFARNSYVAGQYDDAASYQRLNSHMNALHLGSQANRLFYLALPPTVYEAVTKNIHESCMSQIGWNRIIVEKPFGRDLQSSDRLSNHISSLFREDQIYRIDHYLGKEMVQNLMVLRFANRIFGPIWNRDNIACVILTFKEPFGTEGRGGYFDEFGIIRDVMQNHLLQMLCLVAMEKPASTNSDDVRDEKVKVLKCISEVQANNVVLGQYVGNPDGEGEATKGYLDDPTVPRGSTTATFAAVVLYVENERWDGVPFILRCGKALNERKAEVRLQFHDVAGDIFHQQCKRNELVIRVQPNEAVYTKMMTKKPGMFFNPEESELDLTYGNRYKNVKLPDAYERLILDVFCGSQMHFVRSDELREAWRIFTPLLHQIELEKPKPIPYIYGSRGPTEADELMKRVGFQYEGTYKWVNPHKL

[6] = molecular target: T2, Hexokinase HKDC1 (Homo sapiens, UniProt Q2TB90); assay: inhibition of HKDC1 glucose phosphorylation – biochemical, W721R variant, dose response (AID 504729); assay type: functional
T2 sequence (Q2TB90 whole entry): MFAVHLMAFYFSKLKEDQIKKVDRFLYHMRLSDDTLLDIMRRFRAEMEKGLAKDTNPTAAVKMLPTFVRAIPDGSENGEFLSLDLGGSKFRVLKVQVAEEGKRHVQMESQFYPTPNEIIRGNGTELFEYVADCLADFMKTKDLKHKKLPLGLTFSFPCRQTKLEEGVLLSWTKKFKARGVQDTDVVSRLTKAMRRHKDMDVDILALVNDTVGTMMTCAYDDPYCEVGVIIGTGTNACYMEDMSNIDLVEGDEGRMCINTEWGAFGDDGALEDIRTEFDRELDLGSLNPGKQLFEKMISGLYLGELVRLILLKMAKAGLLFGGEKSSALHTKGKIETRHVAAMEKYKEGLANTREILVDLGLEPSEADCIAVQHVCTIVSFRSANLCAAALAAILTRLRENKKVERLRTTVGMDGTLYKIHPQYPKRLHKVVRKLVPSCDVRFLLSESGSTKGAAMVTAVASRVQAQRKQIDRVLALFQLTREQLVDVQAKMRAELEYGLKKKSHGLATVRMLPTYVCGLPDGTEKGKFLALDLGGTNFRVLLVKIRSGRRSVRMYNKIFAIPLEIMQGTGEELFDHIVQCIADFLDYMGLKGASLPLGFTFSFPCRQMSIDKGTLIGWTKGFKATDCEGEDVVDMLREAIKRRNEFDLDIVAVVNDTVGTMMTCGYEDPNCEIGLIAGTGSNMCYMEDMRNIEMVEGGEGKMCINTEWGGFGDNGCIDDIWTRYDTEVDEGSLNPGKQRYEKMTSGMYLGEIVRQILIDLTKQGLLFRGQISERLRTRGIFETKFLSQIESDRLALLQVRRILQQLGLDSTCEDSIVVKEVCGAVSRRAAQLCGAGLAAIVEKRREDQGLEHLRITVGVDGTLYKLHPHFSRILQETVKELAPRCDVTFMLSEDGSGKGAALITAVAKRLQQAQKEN

[7] = viability of uninfected HEp-2 cells – cell-based, HTS, cytotoxicity control for RSV inhibitor project, dose response (AID 2410); assay type: functional; details: human respiratory syncytial virus
[8] = cells
[9] = molecular target: Bcl-2-like protein 10 (Homo sapiens, UniProt Q9HD36); assay: Bcl-B/TR3 peptide binding disruption – biochemical, fluorescence polarization, FITC-TR3 peptide, selectivity assay for Bfl-1 inhibitor project, primary screen (AID 748);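 note: fluorescence polarization from a fluorescein-labelled TR3 peptide binding purified Bcl-B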
Sequence of Bcl-2-like protein 10 (Q9HD36 whole entry): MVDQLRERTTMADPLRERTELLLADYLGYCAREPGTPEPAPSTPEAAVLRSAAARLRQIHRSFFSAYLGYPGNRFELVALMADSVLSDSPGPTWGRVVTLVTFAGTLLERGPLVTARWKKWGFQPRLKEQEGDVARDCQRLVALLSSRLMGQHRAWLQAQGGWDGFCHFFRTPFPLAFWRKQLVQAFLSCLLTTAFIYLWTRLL

[10] = system: Streptococcus; assay: GAS UMAA2166 growth inhibition – luminescence, BacTiterGlo, counter-screen for streptokinase expression inhibitor project, dose response (AID 1915); assay type: functional, organism-based;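 note: potency for reduction of bacterial viability or growth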
[11] = system: Streptococcus sp. 'group A'; assay: Streptococcus pyogenes SK(-)GAS viability under kanamycin – luminescence, BacTiterGlo, confirmation, counter-screen for streptokinase expression inhibitor project, dose response (AID 1900); assay type: functional, organism-based
[12] = molecular target: X-box-binding protein 1 (Homo sapiens, UniProt P17861); assay type: functional, Cricetulus griseus;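 note: confirmatory dose-response counter-screen serving a CHOP assay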
Sequence of X-box-binding protein 1 (P17861 whole entry): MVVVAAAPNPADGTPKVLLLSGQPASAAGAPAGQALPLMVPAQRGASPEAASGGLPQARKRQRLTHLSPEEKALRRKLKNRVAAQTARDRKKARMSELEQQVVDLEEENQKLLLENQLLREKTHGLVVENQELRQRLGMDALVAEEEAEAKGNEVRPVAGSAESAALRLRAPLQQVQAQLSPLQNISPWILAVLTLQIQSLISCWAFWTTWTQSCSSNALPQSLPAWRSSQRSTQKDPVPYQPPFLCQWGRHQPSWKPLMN

[13] = molecular target: T3, Streptokinase A (Streptococcus pyogenes serotype M1, UniProt P10520); assay: viability-normalized secreted streptokinase activity reduction – plasminogen activation absorbance, OD405, dose response (AID 1914); assay type: functional, Streptococcus pyogenes M1 GAS;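 note: secreted streptokinase activity via plasminogen activation per viability signal from cell pellet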
T3 sequence (P10520 whole entry): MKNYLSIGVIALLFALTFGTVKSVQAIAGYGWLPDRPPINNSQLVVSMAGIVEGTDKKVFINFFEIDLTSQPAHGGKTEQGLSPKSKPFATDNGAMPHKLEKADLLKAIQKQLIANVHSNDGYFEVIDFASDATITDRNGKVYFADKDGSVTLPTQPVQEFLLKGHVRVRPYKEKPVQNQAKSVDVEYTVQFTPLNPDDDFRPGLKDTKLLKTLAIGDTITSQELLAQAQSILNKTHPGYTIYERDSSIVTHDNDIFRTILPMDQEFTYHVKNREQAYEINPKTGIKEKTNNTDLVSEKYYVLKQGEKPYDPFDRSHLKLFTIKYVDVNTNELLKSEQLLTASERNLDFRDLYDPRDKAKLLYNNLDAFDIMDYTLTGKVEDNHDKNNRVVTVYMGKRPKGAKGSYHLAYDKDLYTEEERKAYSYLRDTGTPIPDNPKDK

[14] = molecular target: Cytochrome P450 2C9 (Homo sapiens, UniProt P11712); details: Potency
Sequence of Cytochrome P450 2C9 (P11712 whole entry): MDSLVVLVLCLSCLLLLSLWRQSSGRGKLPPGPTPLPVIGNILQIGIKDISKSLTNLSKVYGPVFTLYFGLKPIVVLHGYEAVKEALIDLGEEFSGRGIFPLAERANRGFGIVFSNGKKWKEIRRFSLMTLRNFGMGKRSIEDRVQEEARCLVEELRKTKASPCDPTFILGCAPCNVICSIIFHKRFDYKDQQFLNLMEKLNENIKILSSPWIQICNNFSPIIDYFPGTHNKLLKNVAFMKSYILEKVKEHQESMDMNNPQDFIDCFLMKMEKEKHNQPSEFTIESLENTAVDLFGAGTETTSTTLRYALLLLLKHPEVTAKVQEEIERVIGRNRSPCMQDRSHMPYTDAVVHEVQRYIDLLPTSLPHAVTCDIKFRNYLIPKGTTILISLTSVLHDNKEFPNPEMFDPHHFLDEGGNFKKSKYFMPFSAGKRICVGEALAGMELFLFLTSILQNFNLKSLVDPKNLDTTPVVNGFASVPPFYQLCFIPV

[15] = Luminescence Cell-Based Dose Confirmation HTS to Identify Inhibitors of Polyadenylation.; assay type: functional
[16] = Luminescence Cell-Based Dose Response HTS to Identify Inhibitors of 5'UTR Stem-Loop Driven Prion Protein mRNA Translation in H4 Neuroglioblastoma Cells. [Related pubchem assays: 1827 (Project Summary), 1813 (Primary HTS)]; assay type: functional
[17] = molecular target: Luciferin 4-monooxygenase (Photinus pyralis, UniProt P08659); assay: inhibition of purified Photinus pyralis luciferase – biochemical, luminescence, dose response (AID 1891)
Sequence of Luciferin 4-monooxygenase (P08659 whole entry): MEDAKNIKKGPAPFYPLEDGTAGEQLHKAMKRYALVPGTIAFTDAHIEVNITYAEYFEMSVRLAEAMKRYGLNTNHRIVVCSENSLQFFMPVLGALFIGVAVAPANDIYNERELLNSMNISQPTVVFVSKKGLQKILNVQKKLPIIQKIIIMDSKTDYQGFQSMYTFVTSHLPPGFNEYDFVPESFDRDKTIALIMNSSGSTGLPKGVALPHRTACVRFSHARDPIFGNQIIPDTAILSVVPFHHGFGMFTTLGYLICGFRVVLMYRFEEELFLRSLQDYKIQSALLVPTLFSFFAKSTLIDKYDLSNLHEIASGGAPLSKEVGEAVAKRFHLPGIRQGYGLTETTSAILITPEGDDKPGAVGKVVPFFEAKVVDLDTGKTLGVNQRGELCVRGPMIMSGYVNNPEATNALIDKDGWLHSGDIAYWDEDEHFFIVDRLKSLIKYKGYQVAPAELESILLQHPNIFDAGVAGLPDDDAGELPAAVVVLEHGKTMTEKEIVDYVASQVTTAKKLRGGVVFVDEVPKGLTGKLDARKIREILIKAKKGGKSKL

[18] = alpha-synuclein stem-loop luciferase translation blockers – H4 neuroglioma cells, luminescence, confirmation (AID 1988); assay type: functional, cell-based
[19] = Luminescence Cell-Based Dose Confirmation HTS to Identify Inhibitors of Platelet Dense Granule Release. [Related pubchem assays: 1663 (Primary HTS), 1678 (Summary of Project)]; assay type: functional
[20] = molecular target: T4, Heat shock factor protein 1 (Mus musculus, UniProt P38532); assay: decrease of HSF1-responsive luciferase luminescence – cell-based, NIH3T3, dose retest, confirmation (AID 2382); assay type: functional;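 note: NIH3T3 fibroblasts with HSF1-driven luciferase reporter stressed by proteasome inhibitor MG132; luminescence from HSF1-driven luciferase expression after 8 hours of MG132 stress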
T4 sequence (P38532 whole entry): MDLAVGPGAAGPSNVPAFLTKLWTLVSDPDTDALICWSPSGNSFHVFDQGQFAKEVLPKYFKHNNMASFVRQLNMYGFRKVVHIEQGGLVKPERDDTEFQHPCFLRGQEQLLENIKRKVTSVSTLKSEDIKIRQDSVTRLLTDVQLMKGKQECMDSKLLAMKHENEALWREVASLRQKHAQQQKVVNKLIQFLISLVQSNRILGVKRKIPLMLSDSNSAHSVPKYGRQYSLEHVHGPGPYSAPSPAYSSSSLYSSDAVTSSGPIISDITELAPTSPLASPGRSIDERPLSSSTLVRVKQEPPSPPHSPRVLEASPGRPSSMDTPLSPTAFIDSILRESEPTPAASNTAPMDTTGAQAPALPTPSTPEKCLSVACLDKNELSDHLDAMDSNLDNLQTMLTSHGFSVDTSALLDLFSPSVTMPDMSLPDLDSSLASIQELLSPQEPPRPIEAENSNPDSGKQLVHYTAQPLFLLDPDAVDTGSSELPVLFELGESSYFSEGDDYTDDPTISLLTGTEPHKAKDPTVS

[21] = luciferase reporter signal suppression in cells – H4 neuroglioma cells, luminescence, dose response (AID 1990); assay type: functional, cell-based
[22] = Luminescence-based counterscreen assay for KLF5 inhibitors: dose response cell-based high throughput screening assay to identify cytotoxic compounds using the IEC-6 intestinal epithelial cell line. [Related pubchem assays: 1700 (Primary screen.), 1834 (Confirmation screen.), 1858 (Summary AID.), 1905 (Counterscreen.)]; assay type: functional
[23] = molecular target: Neurotensin receptor type 1 (Homo sapiens, UniProt P30989); assay type: functional;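 note: Image-based confirmatory dose-response assay measuring agonist activity at NTR1; NTR1-expressing U2OS osteosarcoma cells imaged for beta-arrestin GFP spot formation; agonist potency where compounds increase beta-arrestin recruitment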
Sequence of Neurotensin receptor type 1 (P30989 whole entry): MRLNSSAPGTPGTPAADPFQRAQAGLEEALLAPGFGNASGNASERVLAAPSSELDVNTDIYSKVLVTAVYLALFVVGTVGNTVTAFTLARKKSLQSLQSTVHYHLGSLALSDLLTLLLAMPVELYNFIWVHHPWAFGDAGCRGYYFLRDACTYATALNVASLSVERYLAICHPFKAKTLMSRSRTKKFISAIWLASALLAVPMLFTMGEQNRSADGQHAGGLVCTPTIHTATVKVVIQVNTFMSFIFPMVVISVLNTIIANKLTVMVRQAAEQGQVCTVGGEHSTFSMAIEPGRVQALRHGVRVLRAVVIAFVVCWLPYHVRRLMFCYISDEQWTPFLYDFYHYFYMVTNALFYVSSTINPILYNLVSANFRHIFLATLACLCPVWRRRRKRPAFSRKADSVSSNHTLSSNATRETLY

[24] = molecular target: Protein-tyrosine kinase 2-beta (Homo sapiens, UniProt Q14289);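 note: potency of inhibitors of PYK2 kinase phosphorylation of poly-GT substrate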
[25] = molecular target: T5, Corticotropin-releasing factor receptor 2/Corticotropin-releasing factor-binding protein (Homo sapiens, UniProt P24387+Q13324); assay: activators of CRF receptor 2 with binding protein – uHTS hits, confirmation (AID 602473); assay type: functional; details: read-out: EC50_Mean
T5 sequence (Q13324 whole entry): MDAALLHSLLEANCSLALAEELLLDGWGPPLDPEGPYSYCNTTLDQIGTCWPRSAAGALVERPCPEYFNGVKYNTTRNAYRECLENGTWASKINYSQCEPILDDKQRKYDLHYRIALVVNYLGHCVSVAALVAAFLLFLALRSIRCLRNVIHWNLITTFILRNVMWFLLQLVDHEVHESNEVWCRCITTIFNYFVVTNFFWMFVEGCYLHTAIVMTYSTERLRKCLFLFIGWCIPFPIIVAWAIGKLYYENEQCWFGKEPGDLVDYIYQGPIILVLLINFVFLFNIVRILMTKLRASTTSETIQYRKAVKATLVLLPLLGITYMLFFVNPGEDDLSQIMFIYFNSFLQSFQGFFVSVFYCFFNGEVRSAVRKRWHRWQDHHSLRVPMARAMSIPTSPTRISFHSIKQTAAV
T5 sequence (P24387 whole entry): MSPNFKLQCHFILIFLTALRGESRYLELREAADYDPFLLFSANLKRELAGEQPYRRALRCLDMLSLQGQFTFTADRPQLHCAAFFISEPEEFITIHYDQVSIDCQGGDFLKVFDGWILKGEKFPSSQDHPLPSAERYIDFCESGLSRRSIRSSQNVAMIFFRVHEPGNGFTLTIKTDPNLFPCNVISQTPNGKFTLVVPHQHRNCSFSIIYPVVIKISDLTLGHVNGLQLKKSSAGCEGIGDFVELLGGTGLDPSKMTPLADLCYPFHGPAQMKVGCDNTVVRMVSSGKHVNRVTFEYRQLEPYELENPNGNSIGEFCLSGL

Sequence of Mucolipin-3 (Q8TDD5 whole entry): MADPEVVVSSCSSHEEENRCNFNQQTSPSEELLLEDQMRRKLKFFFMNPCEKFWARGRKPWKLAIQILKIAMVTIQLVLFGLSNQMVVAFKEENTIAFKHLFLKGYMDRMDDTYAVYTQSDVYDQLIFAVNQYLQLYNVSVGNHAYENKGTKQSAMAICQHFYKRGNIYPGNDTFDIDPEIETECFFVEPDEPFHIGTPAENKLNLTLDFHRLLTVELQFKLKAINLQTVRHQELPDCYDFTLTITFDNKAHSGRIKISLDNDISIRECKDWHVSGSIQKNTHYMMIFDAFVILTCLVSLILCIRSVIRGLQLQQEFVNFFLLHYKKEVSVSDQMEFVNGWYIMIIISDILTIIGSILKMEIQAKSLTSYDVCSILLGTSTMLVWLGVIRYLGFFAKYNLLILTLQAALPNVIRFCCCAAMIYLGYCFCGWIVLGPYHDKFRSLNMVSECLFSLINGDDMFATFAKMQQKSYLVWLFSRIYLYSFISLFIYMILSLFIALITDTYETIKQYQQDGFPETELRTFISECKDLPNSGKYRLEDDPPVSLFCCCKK

## COc1ccc(N2C(=O)C(F)(F)C2c2ccccc2F)cc1 (centres undefined)
[1]
  EC50: 3.96 µM (active)
[2]
  EC50: > 29.9 µM (not active)

## Cc1cccc(C)c1Nc1nc2ccccc2o1
[3]
  IC50: 26.7 µM (active)

## Cc1ccc(SC2=C(Sc3ccc(C)cc3)C(=O)c3ccccc3C2=O)cc1
[4]
  IC50: 1.38 µM (active)
[5]
  IC50: > 80 µM (inactive)
[6]
  IC50: 15.9 µM (active)

## CCCCC1=NN2C(=N)/C(=C/c3c[nH]c4ccccc34)C(=O)N=C2S1
[3]
  IC50: 61.7 µM (active)

## Cc1cc(Cl)cc(C)c1OCCn1ccnc1
[7]
  CC50: 33.5 µM (active)
[8]
  IC50: 32.9 µM (active)

## O=c1c([N+](=O)[O-])cc(C(F)(F)F)cn1Cc1cccc(Cl)c1
[9]
  IC50: > 100 µM (inactive)

## COC(=O)C(Nc1ccccc1Cl)(c1cc(C)c(O)c(C)c1)C(F)(F)F (centres undefined)
[10]
  EC50: 9.48 µM (active)
[11]
  EC50: 1.58 µM (active)
[12]
  Absolute IC50 (XBP1): < 10 µM
[13]
  EC50: 17.2 µM (active)

## O=C(c1ccc(F)cc1)N1CCN2C(=O)c3ccccc3C12c1ccccc1 (centres undefined)
[8]
  IC50: 31.2 µM (active)

## CC(C)C[C@@H](CC(=O)N[C@@H](CCC(=O)O)CC(=O)O)NC(=O)[C@@H]1CCCC[C@H]1NC(=O)C[C@@H](NC(=O)C[C@H](CO)NC(=O)[C@@H]1CCCC[C@H]1N)C(C)C
[14]
  AC50: 20 µM (inconclusive)

## Cc1cc(Cl)ccc1C(=O)C1CCCN(C(=O)c2snnc2C)C1 (centres undefined)
[15]
  EC50: > 120 µM (not active)

## COc1ccc(OC)c(N/C=C/C(=O)c2ccccc2)c1
[16]
  EC50: 1.35 µM (active)
[17]
  EC50: 0.276 µM (active)
[18]
  EC50: 3.8 µM (active)
[19]
  EC50: 0.982 µM (active)
[20]
  EC50: 0.476 µM (inconclusive)
[21]
  EC50: 6.32 µM (inconclusive)
[22]
  IC50: > 39.8 µM (not active)

## CC(=O)OCC1OC(C#Cc2ccc(C(C)(C)C)cc2)C=CC1OC(C)=O (centres undefined)
[14]
  AC50: 6.31 µM (inconclusive)

## COc1ccc(-n2ncc3c(N4CCN(Cc5ccccc5)CC4)ncnc32)cc1
[23]
  EC50: 35.9 µM (inactive)

## COc1cc(/N=C/c2c(O)[nH]c3ccccc23)cc(OC)c1OC
[18]
  EC50: 0.108 µM (active)
[21]
  EC50: < 0.1 µM (active)
[22]
  IC50: > 39.8 µM (not active)
[24]
  IC50: 3.15 µM (active)

## COC(=O)COc1ccc(/C=N/NC(=O)CN(c2ccccc2OC)S(=O)(=O)c2ccccc2)cc1
[23]
  EC50: 6.65 µM (active)

## COc1ccccc1N(CC(=O)N1CCCCC1)S(=O)(=O)c1ccccc1
[1]
  EC50: 0.59 µM (active)
[2]
  EC50: 12.4 µM (not active)
[25]
  EC50: 8.61 µM (active)
